pIC50, pKd, pKi: −log10 of the molar value.
Key:
[1] = target: T1, FK-506 binding protein (FKBP) (Homo sapiens, UniProt P62942); assay: Inhibition of PPIase (rotamase) enzyme activity of FKBP (apparent Ki); type: biochemical; conditions: substrate N-succinylAla-Ala-Pro-Phe-p-nitroanilide, chymotrypsin-coupled
Text: The inhibition of the PPIase (rotamase) enzyme activity of the FKBP (apparent "Ki" values) can also be measured according to the methods described by either Harding, M. W. et al., Nature 341:758-760 (1989) or Siekierka, J. J. et al., Nature 341:755-757 (1989). The cis-trans isomerization of the proline-alanine peptide bond in a model substrate, N-succinylAla-Ala-Pro-Phe-p-nitroanilide, is monitored spectrophotometrically in a coupled assay with chymotrypsin, which releases 4-nitroanilide from the trans form of the substrate. Fischer, G. et al., Nature 337:476-478 (1989). The inhibitory effect of the addition of different concentrations of inhibitor on the extent of the reaction is determined, and analysis of the change in first order rate constant as a function of inhibitor concentration yields an estimate of the apparent Ki value.

[2] = target: T1, FK-506 binding protein (FKBP); assay: Competitive binding to FKBP against [3H]dihydro-FK-506 (apparent Kd); conditions: competition with [3H]dihydro-FK-506
[3] = system: human peripheral blood lymphocytes; assay: Mitogenesis assay PMA: inhibition of proliferation of human PBLs; type: cell-based; conditions: Lymphocyte, PMA (10 ng/ml) plus ionomycin (250 ng/ml), 48 h incubation
Procedure: (§1) PMA and OKT3mitogens used to stimulate proliferation of human peripheral
(§2) blood lymphocytes (PBC). Compounds are evaluated on their ability to
(§3) Fresh peripheral blood lymphocytes (PBLs) from LeukoPak cells or whole blood from random normal blood donors (tested HIV-negative and hepatitis negative) are isolated and separated by density centrifugation over Histopaque 1077 (Sigma Chemical Co., St. Louis, Mo.). The murine CTLL cytotoxic T cell line and the human Jurkat T cell line are from ATCC (CTLL-2 ATCC TIB214, JURKAT CLONE E6-1 ATCC TIBl52). The human allogeneic B cell lines used for activation of the fresh PBLs are EBV-transformed lymphocytes from normal healthy adult donors with two completely different HLAhaplotypes. All cell lines were routinely tested for the presence of Mycolasma contamination using the GibcoMycotect test kit and are Mycolasma-free. Culture medium consksts of RPMI 1640 (Gibco, Grand Island, N.Y.) containing penicillin (50 U/ml) and streptomycin (50 μg/ml), L-glutamine 2 mM, 2 mercaptoethanol (5×10^-5), 10% heat-inactivated FCS and 10 mM HEPES.
(§4) All chemical stocks were dissolved in DMSO.
(§5) Mitogenesis Assays ("PMA" and "OKT3")
(§6) After 48 h incubation (37° C., 5% CO2), cells were pulsed with 1 μCi of ^3 H-thymidine, harvested 24 h later with a Tom Tek cell harvester, and counted in LKB β-scintillation counter.

[4] = system: human peripheral blood lymphocytes; assay: Mitogenesis assay OKT3: inhibition of proliferation of human PBLs; type: cell-based; conditions: Lymphocyte, OKT3 (10^-4 dilution final), 48 h incubation
Procedure: as §1, §2, §3, §4, §5, §6

[5] = system: PBLs stimulated with LB human viral transformed B lymphoblastoid cells; assay: MLR bioassay LB: inhibition of proliferation in mixed lymphocyte reaction; type: cell-based; conditions: Lymphoblastoid cell, pulsed on day 6, harvested 24 h later
Procedure: (§7) LB and JVMhuman viraltransformed B lymphoblastoid cell lines stimulated t
(§8) proliferate in a mixed lymphocyte reaction (MLR). The compounds are
(§9) evaluated on their ability to inhibit this proliferation.
as §3, §4
(§10) MLR Bioassays ("LB" and "JVM")
(§11) Antigen activated proliferation of PBLs in a primary mixed lymphocyte reaction was assessed in the presence or absence of different concentrations of tested compounds and control drugs. 5×10^4 fresh PBLs were stimulated with 5×10^3 of Mitomycin C treated-allogeneic EBV-transformed β-lymphoglastoid cells, IB and JVM, in a final volume of 200 μl per well in 96-well round-bottomed plates (Mishell, B. B. and S. M. Shiigi, Selected Methods in Cellular Immunology W. H. Freeman and Co., San Francisco, Calif. (1980); Nelson, P. A. et al., Transplantation 50:286 (1990)). Cultures were pulsed on day 6, harvested 24 h later and counted as in previous section.

[6] = system: PBLs stimulated with JVM human viral transformed B lymphoblastoid cells; assay: MLR bioassay JVM: inhibition of proliferation in mixed lymphocyte reaction; type: cell-based; conditions: Lymphoblastoid cell, pulsed on day 6, harvested 24 h later
Procedure: as §7, §8, §9, §3, §4, §10, §11

T1 sequence (P62942 whole entry): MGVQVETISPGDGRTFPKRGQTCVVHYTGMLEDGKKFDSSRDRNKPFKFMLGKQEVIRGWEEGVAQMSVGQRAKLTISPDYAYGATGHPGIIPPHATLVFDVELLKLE

| SMILES | pKi [1] | pKd [2] | pIC50 [3] | pIC50 [4] | pIC50 [5] | pIC50 [6] |
| --- | --- | --- | --- | --- | --- | --- |
| COc1cc(/C=C/C(=O)N2CCC[C@H]2C(=O)OCc2ccccc2)cc(OC)c1OC [Compound 115] | 3.35 | < 4.60 | – | – | – | – |
| O=C(OCc1ccccc1)[C@@H]1CCCN1C(=O)/C=C/c1ccc2c(c1)OCO2 [Compound 109, (S)-3-(3,4-Methylenedioxyphenyl)-prop-2-enoylproline benzyl ester] | 5.52 | < 4.82 | – | – | – | – |
| CCN(C(=O)C(=O)OC)[C@@H](C)C(=O)OC(C)(C)C [Compound 128] | < 3.40 | < 3.30 | – | – | – | – |
| CC(C)(C)OC(=O)[C@@H]1CCCN1C(=O)C(=O)c1ccco1 [Compound 19] | 3.70 | < 3.30 | – | – | – | – |
| C=CCOC(=O)[C@@H]1CCCCN1C(=O)C(=O)OC [Compound 30] | 3.72 | < 4.60 | – | – | – | – |
| COC(=O)C(=O)N1CCCC[C@H]1C(=O)OCCC1CCCCC1 [Compound 32] | 4.35 | < 4.40 | – | – | – | – |
| COC(=O)C(=O)N(C)[C@@H](C)C(=O)OCc1ccccc1 [Compound 125] | 3.40 | < 3.70 | – | – | – | – |
| COC(=O)C(=O)N1CCC[C@H]1C(=O)OC(C)(C)C [Compound 29] | 3.22 | < 3.30 | – | – | – | – |
| COc1ccc(/C=C/C(=O)N(C)[C@@H](C)C(=O)OCc2ccccc2)cc1 [Compound 129, (S)-N-3-(4-methoxyphenyl)-prop-2-enoyl-N-methylalanine benzyl ester] | 4.10 | < 3.82 | – | – | – | – |
| COC(=O)C(=O)N1CCCC[C@H]1C(=O)OC/C(C)=C/[C@H]1CC[C@@H](O)CC1 [Compound 39] | 4.15 | < 4.70 | – | – | – | – |
| O=C(Cc1ccccc1[N+](=O)[O-])C(=O)N1CCC[C@H]1C(=O)OCc1ccccc1 [Compound 27] | 4.59 | < 4.60 | – | – | – | – |
| COC(=O)C(=O)N1CCCC[C@H]1C(=O)OC/C(C)=C/c1ccc(OC)cc1 [Compound 36] | 4.40 | < 4.52 | – | – | – | – |
| COc1ccccc1C(=O)C(=O)N1CCCC[C@H]1C(=O)OCc1ccccc1 [Compound 8] | 4.77 | < 4.12 | – | – | – | – |
| O=C(C(=O)N1CCCC[C@H]1C(=O)OCc1ccccc1)c1cccc([N+](=O)[O-])c1 [Compound 15] | 3.80 | < 4.12 | – | – | – | – |
| O=C(C(=O)N1CCCC[C@H]1C(=O)OCc1ccccc1)c1ccco1 [Compound 20, (S)-Benzyl N-(2-furylglyoxyl)pipecolate] | – | < 4.92 | – | – | – | – |
| COC(=O)C(=O)N(C)[C@H](C(=O)OCc1ccccc1)C(C)C [Compound 126] | 3.77 | < 3.70 | – | – | – | – |
| O=C(C(=O)N1CCCC[C@H]1C(=O)OCc1ccccc1)c1ccccn1 [Compound 17] | 3.89 | < 3.00 | – | – | – | – |
| CCC(=O)C(=O)N1CCC[C@H]1C(=O)OCc1ccccc1 [Compound 41] | 3.40 | < 3.52 | – | – | – | – |
| COC(=O)C(=O)N(C)CC(=O)OCc1ccccc1 [Compound 124] | 3.00 | < 3.70 | – | – | – | – |
| COC(=O)C(=O)N1CCCC[C@H]1C(=O)OCc1ccccc1 [Compound 31] | – | < 4.30 | – | – | – | – |
| COc1ccc(/C=C/C(=O)N(C)[C@H](C(=O)OCc2ccccc2)C(C)C)cc1 [Compound 130] | 4.52 | < 4.70 | – | – | – | – |
| COc1ccc(/C=C/C(=O)N2CCC[C@H]2C(=O)OCc2ccccc2)cc1 [Compound 111] | 5.22 | < 4.52 | – | – | – | – |

Further lines, with some results ahead:

| pKi [1] | pKd [2] | SMILES | pIC50 [3] | pIC50 [4] | pIC50 [5] | pIC50 [6] |
| --- | --- | --- | --- | --- | --- | --- |
| 6.30 | 6.70 | O=C(C(=O)N1CCCC[C@H]1C(=O)OCc1ccccc1)c1cccc(OCc2ccccc2)c1 [Compound 53] | < 5.00 | 5.10 | < 5.00 | < 5.00 |
| 4.92 | 6.46 | O=C(OCc1ccccc1)[C@@H]1CCCCN1C(=O)C(=O)C1(O)CCCCO1 (some centres unmarked) [Compound 50] | – | – | – | – |
| 5.82 | 6.00 | C[C@@H](OC(=O)[C@@H]1CCCCN1C(=O)C(=O)c1ccccc1)c1ccccc1 [Compound 51] | – | – | – | – |
| 4.60 | < 5.30 | O=C(C(=O)N1CCC[C@H]1C(=O)OCc1ccccc1)c1ccccc1 [Compound 2] | – | – | – | – |
| 6.00 | 5.70 | O=C(C(=O)N1CCCC[C@H]1C(=O)OCc1ccccc1)c1cccc2ccccc12 [Compound 48] | < 5.00 | < 5.00 | < 5.00 | < 5.00 |
| 7.82 | 7.22 | COc1cc(C(=O)C(=O)N2CCCC[C@H]2C(=O)OCCCc2cn(C=O)c3ccccc23)cc(OC)c1OC [Compound 93] | 5.22 | 5.15 | 5.00 | 5.06 |
| – | 4.92 | COC(=O)C(=O)N1CCCC[C@H]1C(=O)OCCCC1CCCCC1 [Compound 33] | – | – | – | – |
| 4.60 | 4.70 | O=C(C(=O)N1CCCC[C@H]1C(=O)OCc1ccccc1)c1c[nH]c2ccccc12 [Compound 21] | – | – | – | – |
| 5.30 | 4.10 | COc1cccc(C(=O)C(=O)N2CCC[C@H]2C(=O)OCc2ccccc2)c1 [Compound 42] | – | – | – | – |
| 5.40 | < 5.10 | COc1ccc(/C=C/C(=O)N2CCCC[C@H]2C(=O)OCc2ccccc2)cc1 [Compound 112, (S)-Benzyl N-(4-Methoxycinnamoyl)pipecolate] | – | – | – | – |
| 5.70 | 6.22 | COc1cc(OC)cc(C(=O)C(=O)N2CCCC[C@H]2C(=O)OCc2ccccc2)c1 [Compound 11] | – | – | – | – |
| 4.85 | < 5.30 | O=C(OCc1ccccc1)[C@@H]1CCCCN1C(=O)/C=C/c1ccc([N+](=O)[O-])cc1 [Compound 117] | – | – | – | – |
| – | 7.00 | COc1cc(C(=O)C(=O)N2CCCC[C@H]2C(=O)OCCCCc2ccccc2)cc(OC)c1OC [Compound 63] | 5.22 | 5.51 | 5.00 | 5.07 |
| < 3.30 | 5.00 | O=C(C(=O)N1CCCC[C@H]1C(=O)OCc1ccccc1)c1cccc[n+]1[O-] [Compound 18] | – | – | – | – |
| – | < 5.70 | O=C(C(=O)N1CCCC[C@H]1C(=O)OCc1ccccc1)c1ccccc1 [Compound 3, (S)-Benzyl N-(phenylglyoxyl)pipecolate] | 5.12 | 5.34 | < 5.00 | < 5.00 |
| 5.40 | 5.00 | O=C(C(=O)N1CCCC[C@H]1C(=O)OCc1ccccc1)c1ccc(F)cc1 [Compound 14] | – | – | – | – |
| < 4.22 | < 5.10 | O=C(OCc1ccccc1)[C@@H]1CCCCN1C(=O)/C=C/c1c[nH]c2ccccc12 [Compound 120] | – | – | – | – |
| 5.15 | 6.00 | O=C(C(=O)N1CCCC[C@H]1C(=O)Oc1ccc2ccccc2c1)c1ccccc1 [Compound 6] | – | – | – | – |
| 4.30 | 4.60 | COc1cccc(OC)c1C(=O)C(=O)N1CCCC[C@H]1C(=O)OCc1ccccc1 [Compound 12] | – | – | – | – |
| 5.30 | 5.30 | COc1ccc(C(=O)C(=O)N2CCCC[C@H]2C(=O)OCc2ccccc2)cc1 [Compound 10] | – | – | – | – |
| 5.52 | < 5.40 | O=C(OCc1ccccc1)[C@@H]1CCCCN1C(=O)/C=C/c1ccc2c(c1)OCO2 [Compound 110] | – | – | – | – |
| – | 7.31 | COc1ccc(CCCCOC(=O)[C@@H]2CCCCN2C(=O)C(=O)c2cc(OC)c(OC)c(OC)c2)cc1 [Compound 85] | 5.35 | 5.35 | 5.15 | 5.00 |
| 4.70 | < 5.30 | CN(C)c1ccc(/C=C/C(=O)N2CCCC[C@H]2C(=O)OCc2ccccc2)cc1 [Compound 116] | – | – | – | – |
| 5.05 | 5.52 | CC(C)(C)/C=C/C(=O)C(=O)N1CCCC[C@H]1C(=O)OCc1ccccc1 [Compound 54] | – | – | – | – |
